In the supplement of paper PMC11451515:

Tested on: P12-Ichikawa
Assay: cell viability relative to DMSO control; higher = less cytotoxic
Conditions: 48 h
In short: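 In 1536-well plates, 5 μl of leukemia cells were seeded per well: 500 cells/well for NOMO1 or SEM and 1000 cells/well for P12-Ichikawa. Each line had first been adapted for at least four passages in each medium. Library compounds in DMSO were pin-dosed at 11 threefold concentrations between 47 μM and 0.79 nM, and CellTiter-Glo One luminescence was read after 48 h at 37°C. Viability is a per-plate percentage relative to DMSO wells, with cell-free wells as background.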

[1] = HPLM + 10% dialyzed FBS, 0.000781 µM
[2] = HPLM + 10% dialyzed FBS, 0.00234 µM
[3] = HPLM + 10% dialyzed FBS, 0.00702 µM
[4] = HPLM + 10% dialyzed FBS, 0.0211 µM
[5] = HPLM + 10% dialyzed FBS, 0.0632 µM
[6] = HPLM + 10% dialyzed FBS, 0.19 µM
[7] = HPLM + 10% dialyzed FBS, 0.569 µM
[8] = HPLM + 10% dialyzed FBS, 1.71 µM
[9] = HPLM + 10% dialyzed FBS, 5.12 µM
[10] = HPLM + 10% dialyzed FBS, 15.4 µM
[11] = HPLM + 10% dialyzed FBS, 46.1 µM
[12] = RPMI 5 mM glucose + 10% FBS, 0.000781 µM
[13] = RPMI 5 mM glucose + 10% FBS, 0.00234 µM
[14] = RPMI 5 mM glucose + 10% FBS, 0.00702 µM
[15] = RPMI 5 mM glucose + 10% FBS, 0.0211 µM
[16] = RPMI 5 mM glucose + 10% FBS, 0.0632 µM
[17] = RPMI 5 mM glucose + 10% FBS, 0.19 µM
[18] = RPMI 5 mM glucose + 10% FBS, 0.569 µM
[19] = RPMI 5 mM glucose + 10% FBS, 1.71 µM
[20] = RPMI 5 mM glucose + 10% FBS, 5.12 µM
[21] = RPMI 5 mM glucose + 10% FBS, 15.4 µM
[22] = RPMI 5 mM glucose + 10% FBS, 46.1 µM
[23] = RPMI 5 mM glucose + 10% dialyzed FBS, 0.000781 µM
[24] = RPMI 5 mM glucose + 10% dialyzed FBS, 0.00234 µM
[25] = RPMI 5 mM glucose + 10% dialyzed FBS, 0.00702 µM
[26] = RPMI 5 mM glucose + 10% dialyzed FBS, 0.0211 µM
[27] = RPMI 5 mM glucose + 10% dialyzed FBS, 0.0632 µM
[28] = RPMI 5 mM glucose + 10% dialyzed FBS, 0.19 µM
[29] = RPMI 5 mM glucose + 10% dialyzed FBS, 0.569 µM
[30] = RPMI 5 mM glucose + 10% dialyzed FBS, 1.71 µM
[31] = RPMI 5 mM glucose + 10% dialyzed FBS, 5.12 µM
[32] = RPMI 5 mM glucose + 10% dialyzed FBS, 15.4 µM
[33] = RPMI 5 mM glucose + 10% dialyzed FBS, 46.1 µM

| Compound | cell viability [1] [%] | cell viability [2] [%] | cell viability [3] [%] | cell viability [4] [%] | cell viability [5] [%] | cell viability [6] [%] | cell viability [7] [%] | cell viability [8] [%] | cell viability [9] [%] | cell viability [10] [%] | cell viability [11] [%] | cell viability [12] [%] | cell viability [13] [%] | cell viability [14] [%] | cell viability [15] [%] | cell viability [16] [%] | cell viability [17] [%] | cell viability [18] [%] | cell viability [19] [%] | cell viability [20] [%] | cell viability [21] [%] | cell viability [22] [%] | cell viability [23] [%] | cell viability [24] [%] | cell viability [25] [%] | cell viability [26] [%] | cell viability [27] [%] | cell viability [28] [%] | cell viability [29] [%] | cell viability [30] [%] | cell viability [31] [%] | cell viability [32] [%] | cell viability [33] [%] |
| --- | --- | --- | --- | --- | --- | --- | --- | --- | --- | --- | --- | --- | --- | --- | --- | --- | --- | --- | --- | --- | --- | --- | --- | --- | --- | --- | --- | --- | --- | --- | --- | --- | --- |
| Cc1cc(-c2ccc(CC(=O)Nc3ccc(-c4cccnc4)cc3)cc2)ccn1 | 113 | 113 | 121 | 115 | 118 | 111 | 112 | 108 | 97.7 | 57.1 | 70.2 | 117 | 119 | 121 | 117 | 118 | 132 | 111 | 106 | 111 | 89.9 | 62.6 | 112 | 110 | 111 | 114 | 119 | 108 | 104 | 106 | 96.3 | 69.1 | 55.7 |
| CCc1nc(C(N)=O)c(Nc2ccc(N3CCC(N4CCN(C)CC4)CC3)c(OC)c2)nc1NC1CCOCC1 | 106 | 103 | 111 | 111 | 114 | 97.4 | 97.7 | 102 | 91.7 | 75.1 | 52.6 | 103 | 101 | 109 | 117 | 112 | 100 | 98.7 | 102 | 88.9 | 71.1 | 52.3 | 110 | 109 | 123 | 111 | 131 | 104 | 108 | 110 | 94.8 | 75.9 | 42.1 |
| O=C(O)c1nn(Cc2ccc(Cl)cc2Cl)c2ccccc12 | 94.1 | 93 | 97.1 | 92.5 | 89.5 | 84 | 81.1 | 88.9 | 89.6 | 79.2 | 87.1 | 87.5 | 86.6 | 95.3 | 85.2 | 86.1 | 85.7 | 84.3 | 82.2 | 89.5 | 85.2 | 84.2 | 87.6 | 79.1 | 89.1 | 86.4 | 81.3 | 74 | 73.9 | 74.4 | 81.5 | 71.7 | 76.9 |
| O=C(c1ccc(C(=O)N2CCC(N3CCCC3)CC2)c(Nc2ccccc2)c1)N1CCC(N2CCCC2)CC1 | 103 | 103 | 103 | 106 | 108 | 102 | 106 | 109 | 98.9 | 96.5 | 94.5 | 104 | 95.3 | 93.7 | 101 | 98.1 | 100 | 95.8 | 97.4 | 100 | 92.1 | 95.4 | 98.3 | 97.5 | 95.9 | 96.3 | 100 | 101 | 103 | 101 | 91.1 | 96.1 | 86.1 |
| Oc1ccc(C2CNCCc3c2cc(O)c(O)c3Cl)cc1 (stereo unspecified) | 92.6 | 92.3 | 86.9 | 97.7 | 92.7 | 98.5 | 92.4 | 95.7 | 96.1 | 100 | 99.4 | 87 | 98.4 | 95.8 | 96.8 | 86.5 | 98.8 | 90.3 | 98 | 96.1 | 103 | 101 | 90.3 | 93.3 | 80.2 | 86.9 | 84.7 | 96.9 | 86.1 | 88.5 | 94.1 | 90 | 92.7 |
| COC(=O)Nc1nc2cc(Sc3ccccc3)ccc2[nH]1 | 124 | 115 | 119 | 108 | 112 | 114 | 111 | 96 | 19.5 | 25.2 | 31.8 | 112 | 113 | 118 | 111 | 113 | 124 | 115 | 97.6 | 16.8 | 29.3 | 28.7 | 101 | 109 | 120 | 114 | 113 | 111 | 102 | 90 | 24.5 | 30.4 | 35.5 |
| COC1=C(CC=C(C)C)C2=C(\C=C/C(=O)O2)C=C1 | 84.2 | 109 | 126 | 121 | 110 | 114 | 97.7 | 87.5 | 69.8 | 65.7 | 58.8 | 96.9 | 96.6 | 116 | 116 | 106 | 104 | 107 | 105 | 80.1 | 81.9 | 54.7 | 101 | 123 | 109 | 112 | 112 | 109 | 98.1 | 92.4 | 75.2 | 76.3 | 55.7 |
| CN1CCN(CC1)C/2=N/C3=CC=CC=C3NC4=C2C=C(C)S4 | 98 | 93.9 | 105 | 98.5 | 98.8 | 104 | 107 | 96.9 | 87.4 | 97.4 | 91.1 | 92.8 | 104 | 104 | 102 | 102 | 105 | 102 | 101 | 72.2 | 102 | 84.8 | 94.1 | 99.9 | 97.9 | 96.8 | 98.3 | 99.9 | 99.1 | 91.4 | 92.1 | 93 | 91.9 |
| CN1C(=O)\C(=C/C2=C1N=C(NC3CCOCC3)N=C2)OC4=C(F)C=C(F)C=C4 | 92.5 | 96.2 | 95.4 | 95.3 | 96.9 | 90.2 | 87.5 | 93.2 | 82.6 | 87.2 | 50.7 | 92.3 | 90.3 | 93.5 | 95.2 | 96.1 | 96.6 | 91.8 | 90 | 90.5 | 90.4 | 39.4 | 100 | 94.7 | 90.6 | 87.1 | 96.3 | 99.1 | 93.5 | 86.7 | 79.3 | 81.8 | 35.9 |
| COc1ccc(-c2cc3c(C)nc(N)nc3n([C@H]3CC[C@H](OCCO)CC3)c2=O)cn1 | 103 | 107 | 103 | 85.5 | 88.3 | 72 | 66.2 | 66 | 63.9 | 63.5 | 48.2 | 98.2 | 95.3 | 85.9 | 78 | 70.2 | 55.1 | 51.4 | 44.8 | 42.7 | 37.9 | 35.4 | 96.6 | 98.2 | 85.1 | 76 | 72.3 | 58.7 | 55.5 | 45.9 | 39.3 | 38.7 | 37.4 |
| CN(C)[C@H]\1[C@@H]2[C@@H](O)[C@H]3\C(=C(O)/[C@]2(O)C(=O)\C(=C1O)C(N)=O)C(=O)C4=C(C=CC=C4O)[C@@]3(C)O |  |  |  |  |  |  |  |  |  |  |  | 130 | 123 | 125 | 127 | 127 | 131 | 130 | 106 | 96.1 | 128 | 116 |  |  |  |  |  |  |  |  |  |  |  |
